In patent US7686852B2, “Monoazo dyes” (Clariant Finance (BVI) Limited, priority 2004, dated 2010):

Legend:
[1] = Comparative Test Series 3: stability of dye solution after cooling to 25° C. and 48 hours, filtration test; type: physicochemical; set-up: key to Aspect of the solution after the 48 hours: 1): after cooling down turned immediately cloudy; 2): remained clear after cooling down; key to Grade of the visual inspection of the upper filter: a grade of 5 signifies no residue; 4 signifies little, fine residues; 3 signifies bigger residues; 2 signifies coarse residues; 1 signifies a compact layer of precipitated dyestuff; settings: for Aspect of the solution after the 48 hours: dissolved at 90° C., kept at 25° C. for 48 hour; for time for passing of the 200 ml of dye solution trough the 2 filter layers / Grade of the visual inspection of the upper filter: after 48 hour at 25° C.; for Grade of the visual inspection of the upper filter: filtered through 2 paper filters
Experimental: In 160 ml of water a certain amount of dyestuff was dissolved at 90° C. and the resulting solution was diluted to 200 ml by adding water of 90° C. This solution was put in a water bath kept at 25° C. and after the dye solution was at 25° the dye solution was let for 48 hour without stirring or shaking at 25° C.
The solution was visually inspected first and the filtrated trough 2 layers of paper filters of 70 mm diameter (Typ 1450 CV obtainable from Schleicher & Schuell MicroScience GmbH
Hahnestrasse 3; D-37586 Dassel). The time for passing of the 200 ml of dye solution was measured and the upper filter was inspected visually. Grades are given and a grade of 5 signifies no residue, 4 signifies little, fine residues, 3 signifies bigger residues, 2 signifies coarse residues and 1 signifies a compact layer of precipitated dyestuff.

[2] = Solubility in water / stability of stock solutions; type: physicochemical; settings: room temperature
[3] = hot water, then cooling; cited from earlier work

## Cc1cc(OS(=O)(=O)c2ccc(C(C)(C)C)cc2)ccc1/N=N/c1ccc(Nc2ccc(S(=O)(=O)O)cc2[N+](=O)[O-])cc1 [Example 1]
[1]; 6 g/Liter in water
  Aspect of the solution after the 48 hours: 2)
[1]; 6 g/Liter
  time for passing of the 200 ml of dye solution trough the 2 filter layers: 6 s
  Grade of the visual inspection of the upper filter: 4
[1]; 12 g/Liter in water
  Aspect of the solution after the 48 hours: 2)
[1]; 12 g/Liter
  time for passing of the 200 ml of dye solution trough the 2 filter layers: 7 s
  Grade of the visual inspection of the upper filter: 3 to 4
[1]; 20 g/Liter in water
  Aspect of the solution after the 48 hours: 2)
[1]; 20 g/Liter
  time for passing of the 200 ml of dye solution trough the 2 filter layers: 7 s
  Grade of the visual inspection of the upper filter: 3
[1]; 30 g/Liter in water
  Aspect of the solution after the 48 hours: 2)
[1]; 30 g/Liter
  time for passing of the 200 ml of dye solution trough the 2 filter layers: 8 s
  Grade of the visual inspection of the upper filter: 2 to 3
[2]
  stability of stock solutions: remain clear for several weeks even at room temperature

## Cc1ccc(S(=O)(=O)Oc2ccc(/N=N/c3ccc(Nc4ccc(S(=O)(=O)O)cc4[N+](=O)[O-])cc3)c(C)c2)cc1
[1]; 6 g/Liter in water
  Aspect of the solution after the 48 hours: 1)
[1]; 6 g/Liter
  time for passing of the 200 ml of dye solution trough the 2 filter layers: 16 s
  Grade of the visual inspection of the upper filter: 4
[1]; 12 g/Liter in water
  Aspect of the solution after the 48 hours: 1)
[1]; 12 g/Liter
  time for passing of the 200 ml of dye solution trough the 2 filter layers: 27 s
  Grade of the visual inspection of the upper filter: 3
[1]; 20 g/Liter in water
  Aspect of the solution after the 48 hours: 1)
[1]; 20 g/Liter
  time for passing of the 200 ml of dye solution trough the 2 filter layers: 33 s
  Grade of the visual inspection of the upper filter: 2 to 3
[1]; 30 g/Liter in water
  Aspect of the solution after the 48 hours: 1)
[1]; 30 g/Liter
  time for passing of the 200 ml of dye solution trough the 2 filter layers: 95 s
  Grade of the visual inspection of the upper filter: 1 to 2
[3]
  solubility in water: soluble in hot water, but partly reprecipitates on cooling
